Measured values: article PMC6766977 (International Journal of Cancer, 2019)

What was measured:
LNCaP = assay: Cell viability; assay type: cell-based, human; conditions: read-out: IC50 inhibition of cell viability LNCaP; 1 nM R1881, 6 days; mean ± SD
[1] = system: LAPC‐4 prostate cancer xenograft; assay: LAPC-4 xenograft in vivo efficacy; parameters: species or system mice; conditions: for ΔT/ΔC tumor volume: Day 56
[2] = system: KuCaP‐1 prostate cancer xenograft; assay: KuCaP-1 patient-derived xenograft in vivo efficacy; parameters: species or system mice; conditions: for ΔT/ΔC tumor volume: Day 68; for Maximal body weight loss: vehicle group 10%

With `C[C@@H](Cn1ccc(-c2ccc(C#N)c(Cl)c2)n1)NC(=O)c1cc([C@@H](C)O)[nH]n1` [(S,R)‐darolutamide] the IC50 (LNCaP) was 4.71 µM.
Compound `C[C@H](O)c1cc(C(=O)N[C@@H](C)Cn2ccc(-c3ccc(C#N)c(Cl)c3)n2)n[nH]1` [(S,S)‐darolutamide] has an IC50 (LNCaP) of 5.23 µM.
With `CC(O)(CS(=O)(=O)c1ccc(F)cc1)C(=O)Nc1ccc(C#N)c(C(F)(F)F)c1` (centres unmarked) [Bicalutamide, reference compound] the IC50 (LNCaP) was 3.47 µM.
For `CC(O)c1cc(C(=O)N[C@@H](C)Cn2ccc(-c3ccc(C#N)c(Cl)c3)n2)[nH]n1` (some centres unmarked) [Darolutamide], the ΔT/ΔC tumor volume ([1]; LAPC‐4, 100 mg/kg bi‐daily oral) was 25%, the ΔT/ΔC tumor volume ([1]; LAPC‐4, 200 mg/kg once daily oral) was 23% and the “Reduction of FKBP5 expression in tumors” value ([1]; LAPC‐4 tumors, highest treatment doses, 4 hr after final dosing) was 50%. For the same compound, the IC50 (LNCaP) was 5.26 µM, the ΔT/ΔC tumor volume ([2]; KuCaP‐1, 40 mg/kg bi‐daily oral) was 45% and the “Maximal body weight loss” value ([2]; KuCaP‐1, 40 mg/kg bi‐daily) was 8%. The ΔT/ΔC tumor volume ([2]; KuCaP‐1, 100 mg/kg bi‐daily oral) was 26% and the “Maximal body weight loss” value ([2]; KuCaP‐1, 100 mg/kg bi‐daily) was 6%.
`CNC(=O)c1ccc(N2C(=S)N(c3ccc(C#N)c(C(F)(F)F)c3)C(=O)C2(C)C)cc1F` [Enzalutamide, reference compound] was tested, and the ΔT/ΔC tumor volume ([2]; KuCaP‐1, 30 mg/kg daily) was 70% and the ΔT/ΔC tumor volume ([2]; KuCaP‐1, 100 mg/kg daily) was 99%.
Work on `CC(=O)c1cc(C(=O)N[C@@H](C)Cn2ccc(-c3ccc(C#N)c(Cl)c3)n2)[nH]n1` [Keto‐darolutamide] yielded an IC50 (LNCaP) of 3.21 µM.
